Tests used:
Test in all cases: relative viability (nuclei count vs DMSO), 5 days (fraction); higher = more cells survive
Alisertib + Linsitinib = compound: COc1cc(Nc2ncc3c(n2)-c2ccc(Cl)cc2C(c2c(F)cccc2OC)=NC3)ccc1C(=O)O [Alisertib] + C[C@]1(O)C[C@@H](c2nc(-c3ccc4ccc(-c5ccccc5)nc4c3)c3c(N)nccn32)C1 [Linsitinib] (partner 1 µM)
How it was run: (§1)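 A single step with final 0.05% Triton X-100, 1% formaldehyde and 1 ug/ml Hoechst fixed the cells and stained nuclei 5 days after treatment. Lung cancer cell lines in 1536-well plates had been treated by pin tool the day after seeding with one drug alone or a fixed anchor-drug dose plus five library-drug doses (not always all listed) in √10 steps, and nuclei were counted on 4× images. Relative viability is the ratio of nuclei in treated wells to nuclei in vehicle wells, taken as the median of duplicate plates.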

Alisertib + Pictilisib = compound: COc1cc(Nc2ncc3c(n2)-c2ccc(Cl)cc2C(c2c(F)cccc2OC)=NC3)ccc1C(=O)O [Alisertib] + CS(=O)(=O)N1CCN(Cc2cc3nc(-c4cccc5[nH]ncc45)nc(N4CCOCC4)c3s2)CC1 [Pictilisib] (partner 1 µM)
How it was run: as §1

Alisertib + Alpelisib = compound: COc1cc(Nc2ncc3c(n2)-c2ccc(Cl)cc2C(c2c(F)cccc2OC)=NC3)ccc1C(=O)O [Alisertib] + Cc1nc(NC(=O)N2CCC[C@H]2C(N)=O)sc1-c1ccnc(C(C)(C)C(F)(F)F)c1 [Alpelisib] (partner 2 µM)
How it was run: as §1

Alisertib + Decitabine = compound: COc1cc(Nc2ncc3c(n2)-c2ccc(Cl)cc2C(c2c(F)cccc2OC)=NC3)ccc1C(=O)O [Alisertib] + Nc1ncn([C@H]2C[C@H](O)[C@@H](CO)O2)c(=O)n1 [Decitabine] (partner 2 µM)
How it was run: as §1

| Cell Line | relative viability (Alisertib + Linsitinib; first compound 0.005 µM) | relative viability (Alisertib + Linsitinib; first compound 0.01581 µM) | relative viability (Alisertib + Linsitinib; first compound 0.05 µM) | relative viability (Alisertib + Linsitinib; first compound 0.1581 µM) | relative viability (Alisertib + Linsitinib; first compound 0.5 µM) | relative viability (Alisertib + Pictilisib; first compound 0.005 µM) | relative viability (Alisertib + Pictilisib; first compound 0.01581 µM) | relative viability (Alisertib + Pictilisib; first compound 0.05 µM) | relative viability (Alisertib + Pictilisib; first compound 0.1581 µM) | relative viability (Alisertib + Pictilisib; first compound 0.5 µM) | relative viability (Alisertib + Alpelisib; first compound 0.005 µM) | relative viability (Alisertib + Alpelisib; first compound 0.01581 µM) | relative viability (Alisertib + Alpelisib; first compound 0.05 µM) | relative viability (Alisertib + Alpelisib; first compound 0.1581 µM) | relative viability (Alisertib + Alpelisib; first compound 0.5 µM) | relative viability (Alisertib + Decitabine; first compound 0.005 µM) | relative viability (Alisertib + Decitabine; first compound 0.01581 µM) | relative viability (Alisertib + Decitabine; first compound 0.05 µM) | relative viability (Alisertib + Decitabine; first compound 0.1581 µM) | relative viability (Alisertib + Decitabine; first compound 0.5 µM) |
| --- | --- | --- | --- | --- | --- | --- | --- | --- | --- | --- | --- | --- | --- | --- | --- | --- | --- | --- | --- | --- |
| HCC-78 | 0.412 | 0.418 | 0.183 | 0.15 | 0.187 | 0.172 | 0.253 | 0.168 | 0.145 | 0.0967 | 0.319 | 0.254 | 0.162 | 0.133 | 0.142 | 0.635 | 0.507 | 0.316 | 0.29 | 0.298 |
| NCI-H2085 | 0.876 | 0.85 | 0.516 | 0.389 | 0.281 | 0.463 | 0.435 | 0.46 | 0.248 | 0.248 | 0.892 | 0.91 | 0.465 | 0.352 | 0.314 | 0.565 | 0.544 | 0.319 | 0.396 | 0.332 |
| PC-3 [JPC-3] | 0.967 | 0.908 | 0.864 | 0.559 | 0.447 | 0.616 | 0.728 | 0.667 | 0.349 | 0.369 | 0.952 | 0.98 | 0.751 | 0.598 | 0.369 | 0.829 | 0.822 | 0.661 | 0.62 | 0.51 |
| NCI-H2342 |  |  |  |  |  |  |  |  |  |  |  |  |  |  |  | 0.673 | 0.639 | 0.452 | 0.441 | 0.431 |
| A-427 | 1.07 | 0.986 | 0.257 | 0.202 | 0.184 | 0.615 | 0.451 | 0.234 | 0.147 | 0.172 | 1.03 | 0.922 | 0.173 | 0.165 | 0.14 | 0.52 | 0.442 | 0.233 | 0.211 | 0.211 |
| H3255 | 0.898 | 0.832 | 0.418 | 0.192 | 0.164 | 0.472 | 0.447 | 0.286 | 0.165 | 0.152 | 0.797 | 0.687 | 0.463 | 0.252 | 0.199 | 0.602 | 0.467 | 0.396 | 0.241 | 0.143 |
| HCC-44 | 0.73 | 0.683 | 0.42 | 0.328 | 0.113 | 0.623 | 0.598 | 0.572 | 0.153 | 0.159 | 0.759 | 0.716 | 0.458 | 0.17 | 0.0925 | 0.895 | 0.937 | 0.849 | 0.419 | 0.364 |
| NCI-H1734 | 0.869 | 0.86 | 0.469 | 0.334 | 0.213 | 0.427 | 0.4 | 0.283 | 0.226 | 0.17 | 0.623 | 0.628 | 0.444 | 0.253 | 0.239 | 0.497 | 0.466 | 0.324 | 0.24 | 0.177 |
| NCI-H2228 | 0.55 | 0.936 | 0.317 | 0.12 | 0.095 | 0.362 | 0.419 | 0.228 | 0.119 | 0.138 | 0.781 | 0.499 | 0.256 | 0.133 | 0.193 |  |  |  |  |  |

Reference: the supplement of paper PMC10307832
